Measured values reported in the NIST ThermoML archive (doi:10.1021/acs.jced.7b00171).
Numbers after ± are expanded uncertainties.

Assay: Solid-liquid equilibrium temperature
Conditions: Crystal 1, visual observation

## C1CCCCC1 [cyclohexane]
1310 kPa
  Solid-liquid equilibrium temperature: 280.31 ± 0.26 K
3430 kPa
  Solid-liquid equilibrium temperature: 281.53 ± 0.34 K
5310 kPa
  Solid-liquid equilibrium temperature: 282.52 ± 0.41 K
